Laboratory results: PMC6661824, “α-Glucosidase inhibitors from a mangrove associated fungus, Zasmidium sp. strain EM5-10” (BMC Chemistry, 2019)
pIC50: −log10 of the molar value. Where “and” joins values, the source holds several entries; their conditions need not be identical. Equal entries are not always repeated.

Legend:
[1] = biological target: α-Glucosidase from baker's yeast; assay: α-Glucosidase inhibitory assay (PNP-G substrate); type: biochemical, S. cerevisiae
Protocol: (§1) The α-glucosidase inhibitory assay was performed according to the protocol established in our laboratory. α-Glucosidase from baker’s yeast purchased from Sigma Chemical Co. The inhibition was measured spectrophotometrically at pH 7.0 and 37 °C employing 2 mM p-nitrophenyl α-D-glucopyranoside (PNP-G) as a substrate and 32 mU/mL of the enzyme, in 100 mM potassium phosphate buffer (enzyme stock). […] The absorbance (A) of 4-nitrophenol released by the hydrolysis of PNP-G was measured at 400 nm by Synergy HT Bio Tek microplate spectrophotometer. […] After incubating, 150 µL of the substrate was added and further incubated for 20 min at 37 °C. All assays are performed in 96-well microplates (Greiner bio-one 655101) in duplicate. The activity of samples was calculated as a percentage in comparison to a control (DMSO or MeOH instead of sample solution) according to the following equation: %Inhibition=ΔAcontrol-ΔAsample/ΔAcontrol×100%
The concentration required to inhibit activity of the enzyme by 50% (IC50) was calculated by regression analysis.

α-glucosidase = assay: Kinetic analysis of α-glucosidase inhibition (Lineweaver–Burk plots); type: biochemical, S. cerevisiae; conditions: for type of inhibition against α-glucosidase: Lineweaver–Burk plots; for Vmax: maximum reaction velocity of α-glucosidase in presence of inhibitor
Protocol: Kinetic analysis was carried out to understand the interaction of tripalmitin with α-glucosidase. Lineweaver–Burk plots were constructed using different concentrations of substrate and tripalmitin.
as §1

[2] = standards purchased from Sigma-Aldrich

Row | Structure (SMILES) | pIC50 ([1]; pH 7.0, 37 °C, 2 mM PNP-G) | type of inhibition against α-glucosidase (α-glucosidase) | Vmax (α-glucosidase) [mmol/L/min] | IC50 α-glucosidase ([1]; pH 7.0, 37 °C, 2 mM PNP-G) [µg/mL] | pIC50 [1, 2] | α-glucosidase inhibition (result in words) ([1]; obtained from methanolysis reaction)
1 | CCCCCCCCCCCCCCCC(=O)OCC(COC(=O)CCCCCCCCCCCCCCC)OC(=O)CCCCCCCCCCCCCCC [Compound 1, tripalmitin] | 5.43 and 5.44 | mixed inhibitor | 0.0027 ± 0.0001 | 3.02 | 5.49 | –
2 | OCC(O)CO [glycerol] | – | – | – | – | – | inactive
3 | CCCCCCCC/C=C\CCCCCCCC(=O)OCC(COC(=O)CCCCCCC/C=C\CCCCCCCC)OC(=O)CCCCCCC/C=C\CCCCCCCC [triolein] | – | – | – | – | 5.82 | –

Next, values leading:

Row | pIC50 ([1]; pH 7.0, 37 °C, 2 mM PNP-G) | type of inhibition against α-glucosidase (α-glucosidase) | Vmax (α-glucosidase) [mmol/L/min] | IC50 α-glucosidase ([1]; pH 7.0, 37 °C, 2 mM PNP-G) [µg/mL] | pIC50 [1, 2] | α-glucosidase inhibition (result in words) ([1]; obtained from methanolysis reaction) | Structure (SMILES)
4 | 6.09 | – | – | – | – | – | CCCCCCCCCCCCCCCCCC(=O)O [stearic acid]
5 | 6.64 | – | – | – | – | – | CCCCCCCC/C=C\CCCCCCCC(=O)O [oleic acid]
6 | 6.34 | mixed inhibitors | 0.0024 ± 0.0002 | 0.13 | – | – | CCCCCCCCCCCCCCCC(=O)OC [methyl palmitate]
